The source made the active and inactive calls. For most assays here, no stated cut-off is given here; in the data, actives have a measured EC50 and inactives only a lower limit.

In assay [1] the target is Lysosomal acid glucosylceramidase (Homo sapiens, UniProt P04062). As to the kind of experiment: Dose response cell-based high throughput screening assay to identify enhancers of beta-glucosidase activity. [Related pubchem assays: 784 ]. It is filed as functional.
Assay [2] has as its target T1, Streptokinase A (Streptococcus pyogenes serotype M1, UniProt P10520).
T1 sequence (P10520 whole entry): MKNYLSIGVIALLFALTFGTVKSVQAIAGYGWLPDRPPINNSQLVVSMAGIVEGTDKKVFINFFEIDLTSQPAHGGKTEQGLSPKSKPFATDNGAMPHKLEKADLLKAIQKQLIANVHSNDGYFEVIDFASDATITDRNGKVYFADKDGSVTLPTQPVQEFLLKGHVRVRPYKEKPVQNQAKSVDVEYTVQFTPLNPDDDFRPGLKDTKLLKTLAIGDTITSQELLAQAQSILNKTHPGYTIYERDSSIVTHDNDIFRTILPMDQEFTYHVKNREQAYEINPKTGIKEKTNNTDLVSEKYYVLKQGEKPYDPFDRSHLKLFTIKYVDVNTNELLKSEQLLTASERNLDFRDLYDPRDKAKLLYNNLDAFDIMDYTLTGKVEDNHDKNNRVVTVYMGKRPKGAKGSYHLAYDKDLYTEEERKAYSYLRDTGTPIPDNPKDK
The assay is described as follows: viability-normalized secreted streptokinase activity reduction – plasminogen activation absorbance, OD405, dose response (AID 1914).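 Further: secreted streptokinase activity via plasminogen activation per viability signal from cell pellet.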 It is filed as functional, Streptococcus pyogenes M1 GAS.

Assay [3] is described as follows: alpha-synuclein stem-loop luciferase translation blockers – H4 neuroglioma cells, luminescence, confirmation (AID 1988). The format is functional, cell-based.
Assay [4] addresses ATP-dependent molecular chaperone HSP82 (Candida albicans (strain WO-1) (Yeast), UniProt C4YTQ8). As to the kind of experiment: steroid-induced GRE reporter decrease in yeast – S. cerevisiae, luminescence, Hsp90 inhibitor project, dose response (AID 2400).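 Further: beta-galactosidase luminescence from glucocorticoid response element reporter as proxy for Hsp90 function; inhibitor potency where signal loss means Hsp90 inhibition.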 It is filed as functional, cell-based.
Assay [5] is described as follows: fluconazole-exposed Candida albicans growth modulators – fluorescence, retest, confirmation (AID 2467). The format is functional, cell-based.
The nature of assay [6]: Trypanosoma cruzi growth suppression in host cells – NIH3T3 host cells, beta-gal luminescence, confirmation (AID 2044).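 Further: intracellular parasites grown in NIH/3T3 mouse fibroblasts as host cells; luminescent beta-galactosidase reporter signal from transgenic T. cruzi replicating inside host cells; inhibitors lower the luminescence signal.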 It is filed as functional, cell-based.
The nature of assay [7]: alpha-synuclein stem-loop translation blockers – luminescence, H4 neuroglioblastoma cells, dose confirmation, confirmation (AID 2454).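 Further: H4 neuroglioblastoma cells carrying an alpha-synuclein 5'UTR luciferase reporter; potency for inhibition of the luciferase signal.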 It is filed as functional, cell-based.
A short description of assay [8]: NIH3T3 cell viability loss – ATP luminescence, mouse fibroblasts, counter-screen, dose response (AID 2010).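 Further: cells exposed to compound for about 90 hours before reading.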 It is filed as functional, cell-based.
Assay [9] in a line: luciferase reporter signal reduction – luminescence, H4-C neuroglioblastoma cells, dose response (AID 2458).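 Further: H4 neuroglioblastoma cells stably carrying a luciferase reporter gene fusion.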 The format is functional, cell-based.
For assay [10], the system named is Streptococcus. The assay is described as follows: GAS UMAA2166 growth inhibition – luminescence, BacTiterGlo, counter-screen for streptokinase expression inhibitor project, dose response (AID 1915).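 Further: potency for reduction of bacterial viability or growth.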 It is filed as functional, organism-based.
Assay [11] is described as follows: NIH-3T3 fibroblast cytotoxicity, dose response, cytotoxicity control, cell-based, fluorescence, Alamar Blue, secondary assay (AID 2327).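 Further: NIH-3T3 mouse fibroblasts cultured with fluconazole at 8 µg/mL.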 It is filed as functional.
The subject of assay [12] is Streptococcus sp. 'group A'. As to the kind of experiment: Streptococcus pyogenes SK(-)GAS viability under kanamycin – luminescence, BacTiterGlo, confirmation, counter-screen for streptokinase expression inhibitor project, dose response (AID 1900). The format is functional, organism-based.
For assay [13], the target named is T2, Serine/threonine-protein phosphatase (Candida dubliniensis (strain CD36 / CBS 7987 / NCPF 3949 / NRRLY-17841) (Yeast), UniProt B9W6M3).
T2 sequence (B9W6M3 whole entry): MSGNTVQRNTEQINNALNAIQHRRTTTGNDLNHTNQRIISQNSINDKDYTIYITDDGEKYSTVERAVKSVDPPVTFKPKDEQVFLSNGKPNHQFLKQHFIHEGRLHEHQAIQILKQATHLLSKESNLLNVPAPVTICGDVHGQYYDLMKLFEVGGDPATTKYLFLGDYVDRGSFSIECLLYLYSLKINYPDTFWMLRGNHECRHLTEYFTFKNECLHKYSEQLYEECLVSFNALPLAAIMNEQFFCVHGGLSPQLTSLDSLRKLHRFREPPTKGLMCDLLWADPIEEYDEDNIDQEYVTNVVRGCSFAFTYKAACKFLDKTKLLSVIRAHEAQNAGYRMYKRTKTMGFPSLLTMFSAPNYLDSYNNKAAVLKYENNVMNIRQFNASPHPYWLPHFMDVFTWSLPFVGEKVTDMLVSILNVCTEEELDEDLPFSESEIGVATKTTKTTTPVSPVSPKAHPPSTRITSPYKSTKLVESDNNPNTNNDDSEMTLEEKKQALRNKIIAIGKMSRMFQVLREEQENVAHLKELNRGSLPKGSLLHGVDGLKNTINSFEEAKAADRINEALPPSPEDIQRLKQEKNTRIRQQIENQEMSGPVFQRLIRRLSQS
The assay is described as follows: blockers of CaCl2-induced CDRE-lacZ signaling – S. cerevisiae, luminescence, secondary, dose response (AID 2388).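 Further: yeast reporter cells carrying a calcineurin-responsive lacZ construct stimulated with calcium chloride; luminescent beta-galactosidase reporter signal in whole cells rather than isolated phosphatase activity; potency for inhibition where a drop in reporter signal means calcineurin blockade.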 The format is functional, cell-based.

Assay [14] has as its target G-protein coupled receptor 55 (Homo sapiens, UniProt Q9Y2T6). The assay is described as follows: selective activators of receptor GPR55 – imaging, U2OS cells, beta-arrestin-GFP redistribution, primary screen (AID 1961). The format is functional.
Assay [15] relates to INS1. As to the kind of experiment: INS-1E survival protection against cytokine death – cell-based, luminescence, retest, dose response (AID 449756).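 Further: cell death triggered by IL-1 beta plus TNF-alpha plus IFN-gamma mixture; protective hits raise ATP signal compared with cytokine alone wells.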 It is filed as functional. As to conditions: Rattus norvegicus.
The nature of assay [16]: cells. It is filed as functional, cell-based.
For assay [17], the target named is Signal transducer and activator of transcription 3 (Homo sapiens, UniProt P40763). As to the kind of experiment: STAT3 activation with BCL3 mRNA and toxicity – cell-based, […], BCL3 qPCR, cytotoxicity, late-stage follow-up, panel member STAT3 Activation (AID 2049).
Chain of Signal transducer and activator of transcription 3 (P40763 whole entry): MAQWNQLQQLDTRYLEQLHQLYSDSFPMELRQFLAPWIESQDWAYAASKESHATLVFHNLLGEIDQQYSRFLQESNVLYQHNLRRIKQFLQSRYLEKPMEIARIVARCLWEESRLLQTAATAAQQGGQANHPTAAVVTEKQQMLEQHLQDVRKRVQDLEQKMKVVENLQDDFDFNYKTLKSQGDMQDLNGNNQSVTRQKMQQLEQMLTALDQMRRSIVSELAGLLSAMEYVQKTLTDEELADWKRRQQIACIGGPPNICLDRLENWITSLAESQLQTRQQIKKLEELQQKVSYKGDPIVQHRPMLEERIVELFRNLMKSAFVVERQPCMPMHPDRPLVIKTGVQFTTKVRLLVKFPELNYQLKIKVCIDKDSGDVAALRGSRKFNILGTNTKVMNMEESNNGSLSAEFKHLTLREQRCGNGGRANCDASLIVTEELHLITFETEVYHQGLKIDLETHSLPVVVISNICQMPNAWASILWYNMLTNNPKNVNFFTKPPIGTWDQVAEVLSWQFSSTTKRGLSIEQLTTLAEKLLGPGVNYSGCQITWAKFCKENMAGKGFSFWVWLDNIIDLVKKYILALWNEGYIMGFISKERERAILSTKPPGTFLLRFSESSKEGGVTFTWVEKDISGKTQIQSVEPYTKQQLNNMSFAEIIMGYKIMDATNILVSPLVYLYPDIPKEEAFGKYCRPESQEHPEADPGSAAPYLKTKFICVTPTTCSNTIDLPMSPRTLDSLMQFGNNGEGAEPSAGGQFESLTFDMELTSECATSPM
Assay [18] addresses T3, Alkaline phosphatase, tissue-nonspecific isozyme (Homo sapiens, UniProt P05186).
T3 sequence (P05186 whole entry): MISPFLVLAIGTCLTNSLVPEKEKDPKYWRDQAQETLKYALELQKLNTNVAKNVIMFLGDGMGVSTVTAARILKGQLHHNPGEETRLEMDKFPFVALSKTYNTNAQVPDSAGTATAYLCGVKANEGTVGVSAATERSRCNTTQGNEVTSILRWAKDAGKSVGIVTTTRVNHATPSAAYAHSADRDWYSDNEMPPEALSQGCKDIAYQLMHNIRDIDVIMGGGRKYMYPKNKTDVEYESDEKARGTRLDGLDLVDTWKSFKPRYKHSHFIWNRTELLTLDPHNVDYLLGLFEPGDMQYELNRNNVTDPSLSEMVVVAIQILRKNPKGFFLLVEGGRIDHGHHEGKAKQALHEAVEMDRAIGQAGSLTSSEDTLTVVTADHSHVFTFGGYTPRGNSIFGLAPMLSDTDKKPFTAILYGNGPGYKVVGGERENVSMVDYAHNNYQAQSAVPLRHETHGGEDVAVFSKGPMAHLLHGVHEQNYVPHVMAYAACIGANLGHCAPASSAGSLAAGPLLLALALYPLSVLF

Assay [19] concerns Trypanosoma cruzi. As to the kind of experiment: anti-trypanosomal activity in host cells – cell-based, plate reader, dry powder, set 3, dose response (AID 493197). The format is functional.
Assay [20] deals with T4, Aminopeptidase N (Plasmodium falciparum FcB1/Columbia, UniProt O96935).
T4 sequence (O96935 whole entry): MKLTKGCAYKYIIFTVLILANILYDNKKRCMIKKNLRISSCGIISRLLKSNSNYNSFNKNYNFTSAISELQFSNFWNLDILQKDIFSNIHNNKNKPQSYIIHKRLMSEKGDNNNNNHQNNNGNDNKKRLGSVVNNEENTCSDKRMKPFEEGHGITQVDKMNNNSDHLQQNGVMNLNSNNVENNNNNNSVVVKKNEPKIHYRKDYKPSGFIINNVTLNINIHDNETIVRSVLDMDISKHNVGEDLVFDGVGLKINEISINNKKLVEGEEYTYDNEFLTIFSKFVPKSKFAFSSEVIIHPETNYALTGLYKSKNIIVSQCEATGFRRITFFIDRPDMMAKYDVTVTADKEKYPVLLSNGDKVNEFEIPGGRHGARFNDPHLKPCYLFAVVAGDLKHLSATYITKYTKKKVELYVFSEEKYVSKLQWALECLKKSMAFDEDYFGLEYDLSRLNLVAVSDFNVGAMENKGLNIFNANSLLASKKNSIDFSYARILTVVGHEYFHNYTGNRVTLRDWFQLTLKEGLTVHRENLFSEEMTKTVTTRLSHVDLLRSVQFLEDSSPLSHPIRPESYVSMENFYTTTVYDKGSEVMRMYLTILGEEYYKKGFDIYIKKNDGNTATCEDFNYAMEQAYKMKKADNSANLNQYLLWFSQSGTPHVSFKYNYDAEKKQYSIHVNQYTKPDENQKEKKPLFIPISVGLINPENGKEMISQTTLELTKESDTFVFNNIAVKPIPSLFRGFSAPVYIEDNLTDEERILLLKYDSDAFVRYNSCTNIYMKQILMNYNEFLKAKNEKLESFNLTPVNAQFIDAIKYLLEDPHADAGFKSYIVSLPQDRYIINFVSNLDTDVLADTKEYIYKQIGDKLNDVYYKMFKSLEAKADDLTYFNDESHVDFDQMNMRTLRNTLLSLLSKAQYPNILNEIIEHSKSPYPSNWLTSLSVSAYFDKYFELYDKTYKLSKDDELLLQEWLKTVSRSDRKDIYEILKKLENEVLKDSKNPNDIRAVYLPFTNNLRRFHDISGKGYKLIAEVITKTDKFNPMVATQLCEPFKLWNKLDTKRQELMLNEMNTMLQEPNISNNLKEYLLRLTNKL
The assay is described as follows: malaria alanyl aminopeptidase activity blockers – biochemical, fluorogenic H-Leu-NHMec substrate, 1536-well (AID 1445). Further details: species or system Plasmodium falciparum 3D7, 3D7.

Assay [21] addresses Transitional endoplasmic reticulum ATPase (Homo sapiens, UniProt P55072, C522A). The assay is described as follows: C522A mutant p97 ATPase inhibitors, dose response, counter-screen for p97 inhibitor project, biochemical, luminescence (AID 1544).
Assay [22] addresses Transitional endoplasmic reticulum ATPase (Homo sapiens, UniProt P55072). The assay is described as follows: p97 ATPase inhibitors, dose response, biochemical (AID 1534).

Chain of G-protein coupled receptor 55 (Q9Y2T6 whole entry): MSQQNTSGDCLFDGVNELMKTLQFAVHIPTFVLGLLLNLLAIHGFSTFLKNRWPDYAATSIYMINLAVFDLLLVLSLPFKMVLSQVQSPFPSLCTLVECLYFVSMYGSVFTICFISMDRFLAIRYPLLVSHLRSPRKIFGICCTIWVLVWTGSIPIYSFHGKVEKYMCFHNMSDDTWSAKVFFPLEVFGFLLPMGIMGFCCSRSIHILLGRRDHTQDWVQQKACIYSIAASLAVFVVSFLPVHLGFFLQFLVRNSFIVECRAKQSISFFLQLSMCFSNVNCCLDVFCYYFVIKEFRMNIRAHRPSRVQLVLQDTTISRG
Chain of Lysosomal acid glucosylceramidase (P04062 whole entry): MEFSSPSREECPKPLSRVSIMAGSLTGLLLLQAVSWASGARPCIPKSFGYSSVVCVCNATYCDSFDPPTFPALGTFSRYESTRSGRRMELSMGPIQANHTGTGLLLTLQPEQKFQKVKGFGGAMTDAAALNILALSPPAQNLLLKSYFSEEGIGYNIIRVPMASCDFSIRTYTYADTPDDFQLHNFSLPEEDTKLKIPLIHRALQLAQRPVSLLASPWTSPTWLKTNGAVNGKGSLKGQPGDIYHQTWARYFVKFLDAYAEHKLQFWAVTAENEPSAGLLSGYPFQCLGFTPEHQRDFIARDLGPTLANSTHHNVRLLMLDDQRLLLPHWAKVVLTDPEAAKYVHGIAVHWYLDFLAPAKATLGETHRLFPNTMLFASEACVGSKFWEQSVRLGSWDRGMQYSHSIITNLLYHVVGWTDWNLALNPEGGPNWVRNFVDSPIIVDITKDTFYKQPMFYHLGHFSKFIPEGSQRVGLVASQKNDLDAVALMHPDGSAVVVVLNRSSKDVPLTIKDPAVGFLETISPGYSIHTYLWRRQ
Chain of ATP-dependent molecular chaperone HSP82 (C4YTQ8 whole entry): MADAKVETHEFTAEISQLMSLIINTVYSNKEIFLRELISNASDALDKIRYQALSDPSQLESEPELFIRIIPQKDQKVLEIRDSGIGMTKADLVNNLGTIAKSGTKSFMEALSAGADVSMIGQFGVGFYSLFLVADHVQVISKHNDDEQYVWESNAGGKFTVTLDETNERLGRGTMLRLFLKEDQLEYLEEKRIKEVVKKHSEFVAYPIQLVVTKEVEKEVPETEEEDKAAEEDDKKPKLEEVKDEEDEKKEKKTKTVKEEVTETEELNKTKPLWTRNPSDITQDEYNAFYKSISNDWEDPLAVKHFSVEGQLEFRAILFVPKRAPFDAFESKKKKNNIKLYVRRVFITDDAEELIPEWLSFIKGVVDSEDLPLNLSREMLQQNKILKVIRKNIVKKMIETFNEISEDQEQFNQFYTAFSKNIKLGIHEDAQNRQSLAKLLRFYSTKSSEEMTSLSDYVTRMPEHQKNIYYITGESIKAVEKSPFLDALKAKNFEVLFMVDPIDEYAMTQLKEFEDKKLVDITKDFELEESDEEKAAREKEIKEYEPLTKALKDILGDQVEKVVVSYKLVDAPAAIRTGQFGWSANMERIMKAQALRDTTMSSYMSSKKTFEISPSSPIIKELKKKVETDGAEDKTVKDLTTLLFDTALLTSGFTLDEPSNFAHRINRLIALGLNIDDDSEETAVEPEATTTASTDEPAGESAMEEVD
Chain of Transitional endoplasmic reticulum ATPase (Homo sapiens, UniProt P55072) (P55072 whole entry): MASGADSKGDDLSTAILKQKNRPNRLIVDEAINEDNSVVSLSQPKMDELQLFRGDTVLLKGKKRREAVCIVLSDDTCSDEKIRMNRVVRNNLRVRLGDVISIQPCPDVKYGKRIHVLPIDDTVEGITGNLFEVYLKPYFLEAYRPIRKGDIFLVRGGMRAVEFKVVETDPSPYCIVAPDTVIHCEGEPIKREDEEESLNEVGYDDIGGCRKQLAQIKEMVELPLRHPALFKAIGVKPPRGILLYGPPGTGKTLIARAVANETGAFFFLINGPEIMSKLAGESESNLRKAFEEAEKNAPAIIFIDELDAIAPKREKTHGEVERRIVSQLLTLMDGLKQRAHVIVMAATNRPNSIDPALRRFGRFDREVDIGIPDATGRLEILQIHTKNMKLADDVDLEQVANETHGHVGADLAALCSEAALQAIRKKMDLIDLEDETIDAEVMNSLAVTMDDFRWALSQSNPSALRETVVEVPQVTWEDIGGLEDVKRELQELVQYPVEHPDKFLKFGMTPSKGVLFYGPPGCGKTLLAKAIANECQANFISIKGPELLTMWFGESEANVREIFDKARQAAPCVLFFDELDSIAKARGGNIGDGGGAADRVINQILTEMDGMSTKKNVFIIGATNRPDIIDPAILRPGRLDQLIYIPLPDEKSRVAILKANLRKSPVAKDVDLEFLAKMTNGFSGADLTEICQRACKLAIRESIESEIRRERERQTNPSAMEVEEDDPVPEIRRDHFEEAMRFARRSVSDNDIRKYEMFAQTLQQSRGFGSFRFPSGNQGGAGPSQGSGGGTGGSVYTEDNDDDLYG
Chain of Transitional endoplasmic reticulum ATPase (Homo sapiens, UniProt P55072, C522A) (P55072 2-806 C522A limits assumed): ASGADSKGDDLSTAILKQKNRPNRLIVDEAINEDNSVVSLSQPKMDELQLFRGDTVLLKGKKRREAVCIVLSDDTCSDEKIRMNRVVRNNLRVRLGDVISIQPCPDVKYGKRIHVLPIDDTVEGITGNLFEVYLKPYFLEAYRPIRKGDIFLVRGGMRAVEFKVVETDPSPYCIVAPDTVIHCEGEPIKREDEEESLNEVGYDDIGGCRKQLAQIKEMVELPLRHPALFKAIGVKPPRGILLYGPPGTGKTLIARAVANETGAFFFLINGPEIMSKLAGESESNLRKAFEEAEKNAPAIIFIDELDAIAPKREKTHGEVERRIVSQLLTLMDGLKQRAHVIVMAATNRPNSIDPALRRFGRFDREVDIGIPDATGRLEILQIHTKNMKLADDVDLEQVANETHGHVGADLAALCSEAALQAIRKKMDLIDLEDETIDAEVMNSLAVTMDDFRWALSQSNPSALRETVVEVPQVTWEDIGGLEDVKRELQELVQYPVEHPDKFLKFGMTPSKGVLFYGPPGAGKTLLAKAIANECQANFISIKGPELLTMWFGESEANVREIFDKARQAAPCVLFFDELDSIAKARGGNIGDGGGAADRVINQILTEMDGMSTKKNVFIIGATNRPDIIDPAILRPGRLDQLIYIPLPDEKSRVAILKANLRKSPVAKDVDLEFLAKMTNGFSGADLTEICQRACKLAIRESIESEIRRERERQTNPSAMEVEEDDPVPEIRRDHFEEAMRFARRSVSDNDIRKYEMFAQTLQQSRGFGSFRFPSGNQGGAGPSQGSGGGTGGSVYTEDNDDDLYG

As to `CC(C)n1c(S)nc2c1c(=O)[nH]c(=O)n2C`, in [1], the half-maximal effective concentration (EC50) is listed as > 50 µM (not active).

For `CC1CCN(Cc2c(C(=O)N/N=C/c3cc(Br)ccc3O)nnn2-c2nonc2N)CC1`, the EC50 in assay [2] is 40.3 µM (inconclusive); in assay [3], < 0.1 µM (active); in assay [4] it was > 160 µM (inactive); in assay [5] it was 0.622 µM (active); in assay [6], 0.556 µM (active); in assay [7] it was > 12 µM (not active). The concentration for a half-maximal effect (EC50) was 5.24 µM (active) in assay [8]; 1.79 µM (active) in assay [9]; 8.29 µM (active) in assay [10]; 35.2 µM (inconclusive) in assay [11]; 4.79 µM (active) in [12]; > 180 µM (inactive) in [13]. The results for the EC50 in [14] and in assay [16] were 1.63 µM (active) and 0.982 µM (active), respectively. Besides, the concentration at half-maximal activity (AC50) in [15] was 0.365 µM (active).

Consider `CCCc1cc(C(=O)Nc2cc(OC)c(Cl)cc2OC)no1`, for which the EC50 in assay [17] is 0.00815 µM (active).

As to `CCC(C)N1CC(=O)C(c2nc3ccccc3[nH]2)=C1N` (configuration not stated), the EC50 in assay [18] is 98.9 µM (not active).

In the case of `CCCN1CCC(N2CCCC(C(=O)N(C)CCc3ccc(OC)c(OC)c3)C2)CC1` (configuration not stated), the AC50 in [19] was 16.4 µM (active).

For the compound `COc1ccccc1C(=O)Oc1cc(N)n(S(=O)(=O)c2ccc(C)cc2)n1`, the IC50 in assay [20] was 99.9 µM (active); in assay [21], > 50 µM (not active); in assay [22] it was > 50 µM (not active).
